These results are taken from ChEMBL document CHEMBL4725295, “Synthesis and matched molecular pair analysis of covalent reversible inhibitors of the cysteine protease CPB” (Bioorg Med Chem Lett, 2020).

Where only a bound is given, the exact number is not on record here.

A short description of series [1]: Covalent reversible inhibition of Leishmania cysteine protease B using Z-Phe-Arg-7-amido-4-methylcoumarin as substrate incubated for 2 mins followed by substrate addition by fluorescence assay.
Another series deals with Leishmania. Description: Covalent reversible inhibition of Leishmania cysteine protease B using Z-Phe-Arg-7-amido-4-methylcoumarin as substrate incubated for 2 mins followed by substrate addition by fluorescence assay relative to control. Also on record: concentration or dose not given beside the values.
In series [2] the target is T1, Cathepsin B (Homo sapiens, UniProt P07858). In words: Inhibition of human cathepsin B.
The target of series [3] is T1, Cathepsin B. Description: Inhibition of human cathepsin B relative to control.

For `N#CC1(NC(=O)[C@H](Cc2ccccc2)N[C@H](c2ccccc2)C(F)(F)F)CC1`, in series [1], the Ki is 1.41 µM and the negative logarithm of the Ki (pKi) came out at 5.85.

In series [1], `Cc1ccc([C@@H](N[C@H](Cc2ccccc2)C(=O)NC2(C#N)CC2)C(F)(F)F)cc1` gave a Ki above 10 µM and a negative logarithm of the Ki (pKi) below 5. The inhibition with Leishmania worked out at 88%.

For the molecule `Cc1ccc([C@@H](N[C@@H](Cc2ccccc2)C(=O)NC2(C#N)CC2)C(F)(F)F)cc1`, the values for the Ki (in series [1]; at Cathepsin B [2]) were 1.5 µM and above 10 µM, respectively. For the same molecule, the pKi in series [1] was 5.8. In addition, the “inhibition (INH)” value at Cathepsin B [3] turned out to be 92%.

For the molecule `Cc1ccc([C@H](N[C@H](Cc2ccccc2)C(=O)NC2(C#N)CC2)C(F)(F)F)cc1`, in series [1], the Ki was above 10 µM and the pKi is reported as below 5. Besides, the inhibition with Leishmania came to 86%.

As to `COc1ccc([C@H](N[C@@H](Cc2ccccc2)C(=O)NC2(C#N)CC2)C(F)(F)F)cc1`, in series [1], the Ki was 3.23 µM and the negative logarithm of the Ki (pKi) was 5.5.

In the case of `N#CC1(NC(=O)[C@@H](Cc2ccccc2)N[C@H](c2ccc(Br)cc2)C(F)(F)F)CC1`, the Ki was 0.795 µM in series [1] and above 10 µM at Cathepsin B [2]. Further, the pKi in series [1] is 6.1. In addition, the “inhibition (INH)” value at Cathepsin B [3] is recorded as above 95%.

Take `N#CC1(NC(=O)[C@H](Cc2ccccc2)N[C@H](c2ccc(Br)cc2)C(F)(F)F)CC1`: in series [1], the Ki was found to be 0.595 µM and the pKi came out at 6.23.

In series [1], `N#CC1(NC(=O)[C@H](Cc2ccccc2)N[C@@H](c2ccc(Br)cc2)C(F)(F)F)CC1` gave a Ki of 0.151 µM and a pKi of 6.82. The same molecule came in with a Ki on Cathepsin B [2] above 10 µM. Also, on Cathepsin B [3], the “inhibition (INH)” value is above 95%.

For `N#CC1(NC(=O)[C@@H](Cc2ccccc2)N[C@H](c2ccccc2)C(F)(F)F)CC1`, in series [1], the Ki is 7.65 µM and the negative-log Ki (pKi) amounted to 5.11.

`N#CC1(NC(=O)[C@@H](Cc2ccccc2)N[C@@H](c2ccccc2)C(F)(F)F)CC1`: in series [1], the Ki was 4.4 µM and the pKi amounted to 5.37.

In series [1], `COc1ccc([C@@H](N[C@@H](Cc2ccccc2)C(=O)NC2(C#N)CC2)C(F)(F)F)cc1` displayed a Ki above 10 µM and a pKi below 5. The molecule also yielded an inhibition in the series with Leishmania of 70%.

As for `Cc1ccc([C@H](N[C@@H](Cc2ccccc2)C(=O)NC2(C#N)CC2)C(F)(F)F)cc1`, in series [1], the Ki turned out to be 4.07 µM and the negative logarithm of the Ki (pKi) is on record as 5.4.

With `N#CC1(NC(=O)[C@@H](Cc2ccccc2)N[C@@H](c2ccc(Br)cc2)C(F)(F)F)CC1`, in series [1], the Ki is above 10 µM and the negative-log Ki (pKi) is given as below 5.

In series [1], `N#CC1(NC(=O)[C@H](Cc2ccccc2)N[C@@H](c2ccccc2)C(F)(F)F)CC1` yielded a Ki of 1.7 µM and a pKi of 5.77. The same molecule returned a Ki on Cathepsin B [2] above 10 µM. Moreover, the “inhibition (INH)” value at Cathepsin B [3] came to 74.5%.

Consider `COc1ccc([C@@H](N[C@H](Cc2ccccc2)C(=O)NC2(C#N)CC2)C(F)(F)F)cc1`, for which, in series [1], the Ki was above 10 µM and the pKi is given as below 5. The molecule also registered an inhibition in the series on Leishmania of 95%.

Regarding `COc1ccc([C@H](N[C@H](Cc2ccccc2)C(=O)NC2(C#N)CC2)C(F)(F)F)cc1`, in series [1], the Ki was above 10 µM and the pKi was below 5. Also, the inhibition with Leishmania turned out to be 95%.

As a reminder, the pKi is the Ki on a negative log10 scale, so that one unit is a factor of ten. What is called inhibition is the drop in the measured response relative to a control, in per cent.
